Common to all, as to test: NCI tumour cell line growth inhibition, 48 h
Assay [1] concerns UACC-257 melanoma.
Assay [2] deals with HOP-62 NSCLC.
For assay [3], the system named is M14 melanoma.
For assay [4], the system named is A549 NSCLC.
Assay [5] relates to OVCAR-4 ovarian.
Assay [6] concerns UO-31 renal.
In assay [7] the test system is SW-620 colon.
Assay [8] deals with SK-MEL-28 melanoma.
Assay [9] concerns SF-295 CNS.
Assay [10] concerns SR leukemia.
Assay [11] relates to KM12 colon.
Assay [12] concerns OVCAR-5 ovarian.
Assay [13] relates to 786-0 renal.
Assay [14] concerns BT-549 breast.
The subject of assay [15] is SK-MEL-2 melanoma.
For assay [16], the system named is EKVX NSCLC.
The test system of assay [17] is A498 renal.
Assay [18] deals with NCI-H460 lung.
For assay [19], the system named is K-562 leukemia.
For assay [20], the system named is RXF 393 renal.

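How tested: cells in 96-well plates exposed to compound for 48 hours at five concentrations. TGI denotes the concentration required for complete inhibition of growth.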

With `O=C1Cc2cn[nH]c2-c2ccccc2N1`, the TGI is greater than 60.5 µM in assay [1]; greater than 100 µM in assay [2]; greater than 55.2 µM in assay [3]; greater than 64.2 µM in assay [4]; greater than 75.1 µM in assay [5]; greater than 100 µM in [6]. For the same molecule, the TGI in [7] is 32.4 µM; in [8], greater than 100 µM; in assay [9], greater than 100 µM; in assay [10] it was 71.8 µM; in assay [11] it was greater than 67.3 µM; in assay [12], greater than 57.5 µM. The TGI in [13] is greater than 100 µM; in assay [14], 61.5 µM; in [15], greater than 83.8 µM; in assay [16], 95.4 µM; in [17], greater than 100 µM; in assay [18], greater than 69.8 µM. The TGI was determined as 56.6 µM in [19] and 72.3 µM in [20].

For `O=C1NC(N/N=C\c2ccccc2)=N/C1=C/c1ccccc1`, the TGI in assay [1] is greater than 100 µM; in [2], 48.2 µM; in [3], greater than 100 µM; in assay [4], greater than 100 µM; in [5], 55.9 µM; in assay [6] it was greater than 100 µM. Moreover, the TGI in [7] was greater than 100 µM; in assay [8], greater than 100 µM; in assay [9], greater than 100 µM; in [10], 53.9 µM; in assay [11], greater than 100 µM; in assay [12], 44.5 µM. In addition, the TGI in [13] is greater than 100 µM; in [14] it was 71.2 µM; in assay [15] it was greater than 100 µM; in assay [16], 74.5 µM; in assay [17], greater than 100 µM; in [18], greater than 100 µM. For the same molecule, the values for the TGI in assay [19] and in [20] were greater than 100 µM and 73.1 µM, respectively.

For the molecule `COC(=O)[C@@](NC(=O)OCc1ccccc1)([C@H](C)O)C(F)(F)F`, the TGI in [1], in [2], in assay [3], in [4], in [5] and in assay [6] was greater than 100 µM each time. For the same molecule, the TGI in [7], in assay [8], in [9], in assay [10], in [11] and in assay [12] was greater than 100 µM in each case. The TGI in [13], in assay [14], in assay [15], in assay [16], in assay [17] and in [18] was greater than 100 µM in each case. Also, the TGI in [19] and in [20] was greater than 100 µM throughout.

In the case of `CCOP(=O)(O)C(Nc1ccc(N=Nc2ccccc2)cc1)c1cccc(C(Nc2ccc(N=Nc3ccccc3)cc2)P(=O)(O)OCC)c1` (stereo not given), the TGI was greater than 100 µM in assay [1]; 58.5 µM in [2]; greater than 100 µM in [3]; greater than 100 µM in assay [4]; greater than 100 µM in assay [5]; greater than 100 µM in assay [6]. In addition, the TGI in assay [7] was greater than 100 µM; in assay [8], 93.7 µM; in [9], 58.1 µM; in assay [10], greater than 100 µM; in assay [11], greater than 100 µM; in assay [12], greater than 100 µM. Moreover, the TGI in assay [13] is greater than 100 µM; in [14], greater than 100 µM; in assay [15] it was greater than 100 µM; in assay [16], greater than 100 µM; in [17], 88.6 µM; in assay [18], greater than 100 µM. For the same molecule, the TGI in assay [19] was 40 µM; in assay [20] it was greater than 100 µM.

For `O=CNc1ccccc1OCCOc1ccccc1NC=O`, the TGI in [1], in [2], in [3], in [4], in [5] and in [6] was greater than 100 µM in each case. Moreover, the TGI in assay [7], in assay [8], in assay [9], in [10], in assay [11] and in [12] was greater than 100 µM each time. Further, the TGI in [13], in [14], in assay [15], in [16], in assay [17] and in [18] was greater than 100 µM each time. The TGI in assay [19] and in [20] was greater than 100 µM in each case.

Consider `CCCCCCCCCCCCCCCCNC(=O)/C(=C\c1ccc(Cl)c(Cl)c1)NC(=O)c1ccccc1`, for which the TGI in assay [1] is greater than 100 µM; in [2], 51.6 µM; in assay [3], greater than 100 µM; in assay [4] it was greater than 100 µM; in assay [5], 84.4 µM; in [6], greater than 100 µM. Besides, the TGI is greater than 100 µM in assay [7]; greater than 100 µM in assay [8]; greater than 100 µM in assay [9]; 90.7 µM in assay [10]; greater than 100 µM in [11]; greater than 100 µM in assay [12]. Moreover, the TGI is 47.4 µM in assay [13]; greater than 100 µM in assay [14]; greater than 100 µM in assay [15]; greater than 100 µM in [16]; 35.5 µM in assay [17]; greater than 100 µM in assay [18]. Further, the TGI in assay [19] is 64.3 µM; in [20], 31.8 µM.

Turning to `CC(=O)[C@H]1[C@H](O)C[C@@]2(C)[C@@H]3CCc4cc(O)c(OC5OC(CO)C(O)C(O)C5O)cc4C3(C)C(=O)C[C@]12C` (stereo not given in full), the TGI in [1], in assay [2], in assay [3], in assay [4], in [5] and in assay [6] was greater than 100 µM each time. For the same molecule, the TGI in assay [7], in [8], in assay [9], in assay [10], in assay [11] and in [12] was greater than 100 µM throughout. For the same molecule, the TGI in assay [13], in assay [14], in assay [15], in assay [16], in assay [17] and in [18] was greater than 100 µM throughout. The TGI in assay [19] and in [20] was greater than 100 µM each time.

For the molecule `Cc1ccc(S(=O)(=O)N2CCNCCN(S(=O)(=O)c3ccc(C)cc3)CCNCC2)cc1`, the TGI in assay [1] is 33 µM; in assay [2], 34.8 µM; in [3], 34.7 µM; in assay [4], greater than 100 µM; in assay [5], 82.4 µM; in assay [6] it was 62.6 µM. Moreover, the TGI is greater than 100 µM in [7]; 37.6 µM in assay [8]; 32 µM in [9]; 34.1 µM in assay [10]; 42.1 µM in assay [11]; greater than 100 µM in [12]. Besides, the TGI in assay [13] is 33.7 µM; in assay [14], 47.1 µM; in [15] it was 41.9 µM; in assay [16], greater than 100 µM; in assay [17], 47 µM; in [18], 36.8 µM. The TGI was 31.4 µM in assay [19] and 14.7 µM in [20].

Consider `CC(Oc1ccccc1Cl)C(=O)NN1C(=O)CC(=O)N(c2ccc(Cl)cc2)C1=S` (stereo not given), for which the TGI in [1], in assay [2], in [3], in assay [4], in [5] and in assay [6] was greater than 100 µM throughout. Besides, the TGI in assay [7] was greater than 100 µM; in [8] it was greater than 100 µM; in assay [9] it was greater than 100 µM; in assay [10], 54.4 µM; in [11], greater than 100 µM; in assay [12], greater than 100 µM. In addition, the TGI was greater than 100 µM in assay [13]; greater than 100 µM in assay [14]; 98.2 µM in [15]; greater than 100 µM in [16]; 72.9 µM in assay [17]; greater than 100 µM in assay [18]. Also, the TGI in [19] is greater than 100 µM; in [20], 90.4 µM.

Take `O=[N+]([O-])/C(Cl)=C(/C(Cl)=C(Cl)Cl)N1CCOCC1`: the TGI worked out at 9.3 µM in assay [1]; 2.5 µM in [2]; 7.66 µM in assay [3]; 15.6 µM in assay [4]; 16.7 µM in [5]; 12.8 µM in assay [6]. Besides, the TGI in assay [7] was 11.7 µM; in [8], 34.3 µM; in [9], 25.8 µM; in [10] it was 6.42 µM; in assay [11], 13.1 µM; in assay [12], 22 µM. The TGI is 10 µM in assay [13]; 8.86 µM in assay [14]; 11.6 µM in assay [15]; 21.6 µM in [16]; 7.79 µM in assay [17]; 18.4 µM in [18]. For the same molecule, the TGI came out at 12.8 µM in assay [19] and 7.93 µM in [20].

As for `COC(=O)C(=O)Nc1cc2c3c(c1)Oc1cccc4c1C3(C)c1c(cccc1O2)O4`, the TGI in assay [1], in [2], in assay [3], in assay [4], in assay [5] and in assay [6] was greater than 100 µM throughout. Further, the TGI in assay [7], in assay [8], in [9], in assay [10], in assay [11] and in [12] was greater than 100 µM throughout. In addition, the TGI in assay [13] is greater than 79.7 µM; in assay [14] it was greater than 100 µM; in assay [15], greater than 100 µM; in assay [16], greater than 100 µM; in assay [17], greater than 100 µM; in assay [18], greater than 100 µM. In addition, the TGI is greater than 100 µM in assay [19] and 56.9 µM in assay [20].

Turning to `CN=c1sc2nc(C#N)c(C#N)nc2n1C`, the TGI in assay [1] is greater than 100 µM; in assay [2], 42.1 µM; in [3], greater than 58.9 µM; in assay [4] it was 33.9 µM; in [5], 49.1 µM; in assay [6], 51.3 µM. Also, the TGI is 36.2 µM in assay [7]; greater than 85 µM in [8]; 45.5 µM in assay [9]; greater than 79.6 µM in [10]; greater than 67.8 µM in assay [11]; 51.6 µM in assay [12]. The TGI was greater than 60 µM in assay [13]; 62.8 µM in [14]; 40.7 µM in assay [15]; 73.8 µM in [16]; 35.2 µM in [17]; 35.7 µM in assay [18]. For the same molecule, the TGI is greater than 60 µM in assay [19] and 40.5 µM in assay [20].

Consider `CC(=O)Nc1cccc(N2C(=O)/C(=C\c3cccc(Oc4ccccc4)c3)SC2c2ccccc2)c1` (stereo not given), for which the TGI in assay [1], in assay [2], in [3], in [4], in assay [5] and in assay [6] was greater than 100 µM each time. Further, the TGI in [7] is greater than 100 µM; in assay [8], greater than 100 µM; in assay [9], greater than 100 µM; in assay [10], 47.1 µM; in assay [11] it was greater than 100 µM; in assay [12], greater than 100 µM. In addition, the TGI in assay [13], in [14], in [15], in assay [16], in [17] and in assay [18] was greater than 100 µM throughout. Further, the TGI in [19] and in assay [20] was greater than 100 µM each time.

As to `COc1ccc2nc3ccc(OC)cc3c(SCCCl)c2c1`, the TGI is greater than 100 µM in assay [1]; greater than 78.3 µM in [2]; greater than 21.3 µM in [3]; greater than 100 µM in assay [4]; greater than 85 µM in [5]; greater than 100 µM in assay [6]. Also, the TGI in [7] was greater than 100 µM; in assay [8], greater than 100 µM; in assay [9], greater than 100 µM; in [10], 15.6 µM; in [11], greater than 71 µM; in assay [12] it was greater than 40.8 µM. Also, the TGI in assay [13] is 30.1 µM; in assay [14], greater than 100 µM; in assay [15], greater than 85.1 µM; in assay [16], greater than 100 µM; in assay [17] it was greater than 91.5 µM; in [18], greater than 100 µM. Moreover, the TGI was greater than 46.5 µM in assay [19] and greater than 48.1 µM in assay [20].

The record behind these values is PubChem BioAssay (NCI).
